{"source": "patent US20120156333A1", "about": "“STABILIZED BETA CRYPTOXANTHIN-CONTAINING WATER AND THE USE THEREOF” (ARKRAY, INC., priority 2010, published 2012)", "key": {"[1]": {"conditions": "for ln k: converted from log Kobs", "description": "Specifically, a graph of FIG. 185 on page 95 of the publication was cited. FIG. 1 is an Arrhenius plot of degradation of thiamine hydrochloride in a vitamin complex liquid agent, the Y axis indicates log Kobs (day^−1), and the X axis indicates 1/T (K^1). The stable periods were calculated based on the activation energy for degradation of thiamine hydrochloride in the vitamin complex liquid agent, shown in the graph.\nIn FIG. 1, the Y axis is indicated by not ln, but log. Therefore log Kobs was converted into ln k.\nThen, −Ea/R and ln A were calculated from the ln k and 1/T (K^−1) on the X axis of FIG. 1 based on the Arrhenius equation represented by the formula (1) below."}, "[2]": {"conditions": "degradation in vitamin complex liquid agent, cited from earlier work"}}, "note": "Counter-ions that a name gives are not always drawn. Like-named read-outs stand apart in the source and are kept apart here.", "data": [{"molecule": "Cc1ncc(C[n+]2csc(CCO)c2C)c(N)n1", "note": "[thiamine hydrochloride]", "values": [{"measurement": "ln k", "setting": "[1]; T 20.0 ° C.", "value": "−9.4406"}, {"measurement": "ln k", "setting": "[1]; T 22.5 ° C.", "value": "−8.635"}, {"measurement": "ln k", "setting": "[1]; T 29.1 ° C.", "value": "−7.829"}, {"measurement": "ln k", "setting": "[1]; T 38.7 ° C.", "value": "−6.6775"}, {"measurement": "ln k", "setting": "[1]; T 50.0 ° C.", "value": "−5.296"}, {"measurement": "ln k", "setting": "[1]; T 57.6 ° C.", "value": "−4.0986"}, {"measurement": "ln k", "setting": "[1]; T 67.7 ° C.", "value": "−2.993"}, {"measurement": "ln A", "setting": "[1]; intercept b of Arrhenius equation from ln k and 1/T (K^−1)", "value": 35.139}, {"measurement": "−Ea/R", "setting": "[1]; slope a of Arrhenius equation from ln k and 1/T (K^−1)", "value": "−13005"}, {"measurement": "Kobs", "setting": "[2]; T 20.0 ° C.", "value": 0.000, "unit": "day⁻¹"}, {"measurement": "log10k", "setting": "[2]; T 20.0 ° C.", "value": "−4.100"}, {"measurement": "Kobs", "setting": "[2]; T 22.5 ° C.", "value": 0.000, "unit": "day⁻¹"}, {"measurement": "log10k", "setting": "[2]; T 22.5 ° C.", "value": "−3.750"}, {"measurement": "Kobs", "setting": "[2]; T 29.1 ° C.", "value": 0.000, "unit": "day⁻¹"}, {"measurement": "log10k", "setting": "[2]; T 29.1 ° C.", "value": "−3.400"}, {"measurement": "Kobs", "setting": "[2]; T 38.7 ° C.", "value": 0.001, "unit": "day⁻¹"}, {"measurement": "log10k", "setting": "[2]; T 38.7 ° C.", "value": "−2.900"}, {"measurement": "Kobs", "setting": "[2]; T 50.0 ° C.", "value": 0.005, "unit": "day⁻¹"}, {"measurement": "log10k", "setting": "[2]; T 50.0 ° C.", "value": "−2.300"}, {"measurement": "Kobs", "setting": "[2]; T 57.6 ° C.", "value": 0.017, "unit": "day⁻¹"}, {"measurement": "log10k", "setting": "[2]; T 57.6 ° C.", "value": "−1.780"}, {"measurement": "Kobs", "setting": "[2]; T 67.7 ° C.", "value": 0.050, "unit": "day⁻¹"}, {"measurement": "log10k", "setting": "[2]; T 67.7 ° C.", "value": "−1.300"}]}]}
